Assay results from patent publication US7851445B2, “Angiogenic heparin-binding epitopes, peptide amphiphiles, self-assembled compositions and related methods of use” (Northwestern University, priority 2005, dated 2010).
Where a SMILES comes first, the peptide text is derived from it. The star is where a group is joined. Palmitoyl = CCCCCCCCCCCCCCCC(=O)*

How the values were obtained:
[1] = Isothermal titration calorimetry of heparin into HBPA solution; conditions: ITC, heparin titrated into HBPA in water, fit for a single type of binding site
Text: Isothermal titration calorimetry was used to titrate increments of heparin independently into both the HBPAs and measured the heat released upon binding as a function of the molar ratio. The data obtained was integrated and fitted to a nonlinear function as previously described (Fromm, J. R., et al, “Differences in the Interaction of Heparin with Arginine and Lysine and the Importance of These Basic-Amino-Acids in the Binding of Heparin to Acidic Fibroblast Growth-Factor” Arch. Biochem. Biophys. 323 (1997) 279) to obtain an association constant of 10^7 in both cases (see FIGS. 3E and 3F). Despite similarity in their binding constants, the binding interaction of HBPA-1 and HBPA-2 were energetically very different. […] Such results can be explained with reference to their respective structures. HBPA-1 has hydrophobic residues on the periphery of its peptide chain and the increase in entropy is possibly due to displacement of solvent water molecules from these residues upon heparin interaction.
Characterization of the self-assembly. […] The images were analyzed using the Leica LCS imaging software. […] A frequency sweep experiment was performed at 3% strain with a ten-minute wait time (both determined by independently performing an amplitude sweep and a time strain experiment) to obtain 17 data points between angular frequencies of 0.1 to 10 rad/s. […]

[2] = Solubility in water; format: physicochemical

solubility in water [2] | SMILES | association constant [1]
readily soluble in water | CCCCCCCCCCCCCCCC(=O)N[C@@H](C)C(=O)N[C@@H](C)C(=O)N[C@@H](C)C(=O)N[C@@H](C)C(=O)NCC(=O)NCC(=O)NCC(=O)N[C@@H](CC(C)C)C(=O)N[C@@H](CCCNC(=N)N)C(=O)N[C@@H](CCCCN)C(=O)N[C@@H](CCCCN)C(=O)N[C@@H](CC(C)C)C(=O)NCC(=O)N[C@@H](CCCCN)C(=O)N[C@@H](C)C(N)=O [HBPA-1] (Palmitoyl-AAAAGGGLRKKLGKA-NH2) | 10^7
readily soluble in water | CCCCCCCCCCCCCCCC(=O)N[C@@H](C)C(=O)N[C@@H](C)C(=O)N[C@@H](C)C(=O)N[C@@H](C)C(=O)NCC(=O)NCC(=O)NCC(=O)N[C@@H](CC(C)C)C(=O)N[C@@H](CC(C)C)C(=O)NCC(=O)N[C@@H](C)C(=O)N[C@@H](CCCNC(=N)N)C(=O)N[C@@H](CCCCN)C(=O)N[C@@H](CCCCN)C(=O)N[C@@H](CCCCN)C(N)=O [HBPA-2] (Palmitoyl-AAAAGGGLLGARKKK-NH2) | 10^7
